According to patent US20250135002A1, “COMPOSITIONS FOR AND METHOD OF EFFECTING TUMOR CELL DEATH” (Duke University, priority 2022, published 2025):
Read-outs that look alike come from different tables or passages of the source.

Tested on: c1498 murine AML (Acute Myeloid Leukemia) cells
Experiment: Survival of FACS-sorted phosphatidylserine-positive AML cells after cytarabine treatment
Format: cell-based
Settings: Mus musculus, 1 μM cytarabine for 24 hrs, live cell number estimated from growth rates
From the text: FIG. 1A-FIG. 1C show the survival of phosphatidylserine-expressing AML cells. […] The rectangles indicate the sorted cells. […] About 1000 each of the sorted cells were placed into multi-well plates. When the cells reached sufficient numbers, they were counted at different time points to measure their growth rates. The growth rates were then used to estimate the initial live cell numbers. The following formula was used to calculate the minimal initial live cell numbers: Minimal initial cell number=Total cell population/[…] (days to reach the current cell number).
To determine whether cells expressing high-level of PS expression on the cell surface were destined to die, the viability of c1498 murine AML (Acute Myeloid Leukemia) cells treated with cytarabine (part of a classical chemotherapy regimen for human AML) was examined.
Specifically, whether PS-expressing acute myelocytic leukemia (AML) cells survived was examined. FACS was used to identify and sort c1498 cells treated with 1 μM cytarabine (for 24 hrs) and with high PS-expression. The sorted cells were then seeded into 6-well dishes and the ability to survive and proliferate was measured. FIG. 1A-FIG. 1B). […]

**Q.** How did the viability at 1 µM (FACS-sorted PS+7AAD+ (late apoptotic) cells, read-out: proportion of cytarabine-treated PS+7AAD+ c1498 cells that remained viable and could proliferate) turn out when `Nc1ccn([C@@H]2O[C@H](CO)[C@@H](O)[C@@H]2O)c(=O)n1` [cytarabine] was run?
**A.** ~8%

**Q.** And the viability at 1 µM (FACS-sorted PS+7AAD- (early apoptotic) cells, read-out: proportion of cytarabine-treated PS+7AAD- c1498 cells that remained viable and could proliferate)?
**A.** ~25%
